Source: patent publication US20220142990A1, “EXTERNAL PREPARATION FOR TREATING A VASCULAR ANOMALY” (OSAKA UNIVERSITY, priority 2019, published 2022)

Experiment: Test Example 4: sirolimus in blood of the patients
Format: in vivo, human
Settings: Patients A, B, C; 0.2% sirolimus gel applied to lesion twice a day for 12 weeks; not detected, measurement limit value
Experimental: The gel containing 0.2 wt % of sirolimus produced in Production Example 3 (hereinafter referred to as 0.2% sirolimus gel) was applied to a lesion portion twice a day for 12 weeks. An approximate size of an application target lesion was measured to determine a single application amount. The application amount was set to about 125 mg of gel per 50 cm^2. In the sirolimus gel treatment period (12 weeks), no combined medicine was used, and no combination therapy was performed.
Sirolimus was not detected from the blood of any of the patients (measurement limit value: 1.0 ng/mL).

For `CO[C@H]1C[C@@H]2CC[C@@H](C)[C@@](O)(O2)C(=O)C(=O)N2CCCC[C@H]2C(=O)O[C@H]([C@H](C)C[C@@H]2CC[C@@H](O)[C@H](OC)C2)CC(=O)[C@H](C)/C=C(\C)[C@@H](O)[C@@H](OC)C(=O)[C@H](C)C[C@H](C)/C=C/C=C/C=C/1C` [Sirolimus, sirolimus], the sirolimus in blood was < 1.0 ng/mL.
